Tests used:
PSMA+HEK cells = test: Luminescence ADCC reporter (CD16α activation) assay with mmAb; type: cell-based, human; details: antibody 10^−7-10^−9 M
Description: Covalent vs. non-covalent antibody recruitment were compared in functional immune assays. Activation of NK cell CD16α immune receptors was assessed via luminescence based ADCC assays. ADCC was quantified using the ADCC Reportor Bioassay kit (Promega G7010). All ADCC induced luminescence was measured on a SpectraMax i3 plate reader (Molecular Devices). The human IgG isotype control used was purchased from Jackson ImmunoResearch (009-000-003). The human IgG1 monoclonal anti-DNP antibody (mAb) was purchased from Acrobiosystems (DNP-M2). Human IgG from serum was purchased from Innovative Research ([…]1000MG). Anti-DNP depleted serum was made from human IgG from serum (Innovative Research). For PSMA competition controls, 2-PMPA was purchased from Sigma (SML1612). Hek-293T (PSMA+/−) cell lines were generously given by Dr. Cyril Barinka (Institute of Biotechnology CAS, Czech Republic). Ultra low IgG FBS was purchased from Fischer Scientific (A3381901). RPMI-1640 was purchased as a powder from Fischer Scientific (31800089) and resuspended. DMEM was purchased as a powder from Fischer Scientific (12800082) and resuspended. Pen/Strep was purchased from Fischer Scientific (15140-122). FBS was purchased from Fischer Scientific (12484-028). Zeocin was purchased from Fischer Scientific (R25001). HEK-PSMA cells were cultured in DMEM media with 2 mM L-glut, 1% Pen/Strep, 10% FBS, 50 ug/mL Zeocin. HEK cells were cultured in DMEM media with 2 mM L-glut, 1% Pen/Strep, 10% FBS.
Preparation of antibody-CIR/ARM stocks were mixed overnight prior to addition to the ADCC plate. In the case of mmAb and mAb, incubation was carried out at 600 nM antibody and 1.2 μM CIR or ARM. In the case of IgG from serum, incubation was completed at 230 μM antibody and 8.7 μM CIR or ARM. In all cases, DMSO was kept close to 1%. After the overnight incubation, a dilution series was completed on the antibody-CIR/ARM stocks in RPMI (1% DMSO). […] 75 μL of Bio-Glo Luciferase Assay Reagent was added to each well, and luminescence was quantified using the SpectraMax i3 plate reader. […]

HEK PSMA+cells = test: Flow cytometry antibody recruitment to the target cell surface; type: cell-based, human
Description: CIR 3 or ARM 11 (640 nM) was incubated with 320 nM antibody (mmAb or mAb) at room temperature overnight. After overnight incubation, a dilution series (1:2, 1:3, 1:3, 1:3) was conducted using each condition stock which was then equilibrated for 90 minutes prior to addition to the assay well plate. HEK293 cells transfected with PSMA, were washed 3× and placed in a flow buffer containing 4% FBS, 0.5 mM EDTA/EGTA, 0.1% Sodium Azide, at a concentration of 2×10^6 Cells/mL. 75 μL of cells were added (150 000 Cells per sample) and kept on ice. 25 μL of antibody+CIR or antibody+ARM conditions prepared above were added to the target cells (experimental antibody concentrations: 80 nM, 40 nM, 13.3 nM, 4.4 nM, 1.5 nM). For the DNP Control, 4.5 mM was added to antibody for 5 minutes, then the CIR/ARM was added, and the solution incubated overnight. […]
Elimination equilibrium of the ARM:antibody through a covalent linkage to CIRs, and its impact on total antibody recruitment to target cells, at different therapeutically relevant antibody concentrations was next evaluated. […] This leads to increases in the mean fluorescence intensity (MFI) of associated cell populations, detectable in flow cytometry.
Antibody recruitment to the cell surface is proportional to the mean fluorescence intensity (MFI) of cell populations, bound to mmAb antibody complexes comprising CIR 3 or ARM 11. […]

SMILES: O=C(O)CC[C@H](NC(=O)N[C@@H](CCCCNC(=O)NCCOCCOCCOCCOCCOCCOCCOCCOC(=O)n1cnc(CCNC(=O)CNc2ccc([N+](=O)[O-])cc2[N+](=O)[O-])c1)C(=O)O)C(=O)O [CIR 3]
- CD16α based target immune recognition (PSMA+HEK cells): robust target immune recognition
- total antibody recruitment to the target cell surface (MFI) (HEK PSMA+cells; higher antibody concentrations (40-80 nM)): comparable efficiencies
- total antibody recruitment to the target cell surface (MFI) (HEK PSMA+cells; sub-saturating mAb or mmAb (<40 nM), 37° C.): more total antibody recruitment to the target cell surface compared to ARM 11

— US11827624B2, “Covalent immune recruiter compounds for immune cell recognition and associated uses” (McMaster University, priority 2020, dated 2023)
